Test results published in patent EP0671915B1, “USE OF IDAZOXAN AND DERIVATIVES THEREOF IN PREPARING A DRUG FOR TREATING PARKINSON'S DISEASE AND ITS DEVELOPMENT” (PIERRE FABRE MEDICAMENT, priority 1992, dated 1994).

How the values were obtained:
[1] = Clinical study in idiopathic Parkinson's disease patients versus 1-DOPA: motor symptoms; type: in vivo; design: key: 0 : pas de changements par rapport à avant le traitement; + a +++ amélioration; + a +++ amélioration; + a +++ amélioration; settings: oral, 4 weeks; for symptômes précoces, persistance de l'amélioration après traitement / symptômes précoces, pendant traitement: eye blinking; for symptômes précoces, persistance de l'amélioration après traitement / symptômes tardifs, persistance de l'amélioration après traitement: after end of treatment; for symptômes précoces, pendant traitement / symptômes tardifs, pendant traitement: during treatment; for symptômes tardifs, persistance de l'amélioration après traitement / symptômes tardifs, pendant traitement: hypokinesia
Procedure: 20 patients ont été sélectionnés répondant aux critères idiopathiques de la maladie de Parkinson et une étude a été menée contre la 1-DOPA.
Les administrations sont effectuées pendant 4 semaines par voie orale dans une gamme de dose de 500 mg à 4 g par jour pour la 1-DOPA, et pour l'Idazoxan d'une dose initiale de 3 fois 5 mg par jour croissant à un maximum de 3 fois 40 mg par jour, le clinicien déterminant la posologie exacte pour chaque patient.
L'efficacité des traitements a été mesurée sur les symptômes moteurs, du type tremblement d'action, d'intention, de repos, sur l'hypokinésie (symptômes tardifs) et le clignement des paupières (symptôme précoce de la maladie). Les observations ont été faites pendant le traitement et après arrêt du traitement pour mettre en évidence la persistance éventuelle de l'amélioration des symptômes.

neurones dopaminergiques = test: Mouse model of DSP4 + MPTP induced degeneration: cortical noradrenaline and striatal dopamine levels; type: in vivo, souris; design: key to Taux de NA cortical / Taux de DA striatale: * à *** niveau de dégénérescence estimé par la diminution des taux de NA cortical et DA striatale; * à *** niveau de dégénérescence estimé par la diminution des taux de NA cortical et DA striatale; * à *** niveau de dégénérescence estimé par la diminution des taux de NA cortical et DA striatale; settings: for Taux de DA striatale / Taux de NA cortical: mice given DSP4 and MPTP, then treated, measured after end of treatment, symbol = level of degeneration
voie nigro-striée = test: Squirrel monkey MPTP model with noradrenergic lesion (protocol analogous to Mavridis et al.); type: in vivo, singe écureuil; settings: behavioural, biochemical and histological results
Description: L'emploi de l'idazoxan a également été étudié chez le singe écureuil selon un protocole analogue à celui de M. MAVRIDIS et al. Neuroscience 41,507 (1991).
Les résultats comportementaux, biochimiques et histologiques montrent qu'une lésion du système noradrénergique induit une dégénération de la voie nigrostriée après administration du MPTP.

[2] = depression; 5 to 40 mg, 3 times a day for 4 weeks; versus placebo; cited from earlier work

Row | SMILES | symptômes précoces, persistance de l'amélioration après traitement [1] | symptômes précoces, pendant traitement [1] | symptômes tardifs, persistance de l'amélioration après traitement [1] | symptômes tardifs, pendant traitement [1] | Taux de DA striatale (neurones dopaminergiques) | Taux de NA cortical (neurones dopaminergiques) | dégénérescence de neurones dopaminergiques provoquée par le DSP4 et la MPTP (neurones dopaminergiques; shown by slower fall of striatal dopamine compared with 1-DOPA (Groupe F) or apomorphine (Groupe G)) | effet de la lésion de la voie nigro-striée (voie nigro-striée) | échelle de Hamilton [2]
1 | N[C@@H](Cc1ccc(O)c(O)c1)C(=O)O [1-DOPA, reference compound] | 0 | +++ | 0 | +++ | – | – | – | – | –
2 | CN1CCc2cccc3c2[C@H]1Cc1ccc(O)c(O)c1-3 [G, apomorphine, reference compound] | – | – | – | – | *** | * | – | – | –
3 | c1ccc2c(c1)OCC(C1=NCCN1)O2 (stereo not drawn) [idazoxan, 2-(2-(1,4-benzodioxanyl))-2-imidazoline] | ++ | ++ | + | + | * | * | ralentissement de la dégénérescence de neurones dopaminergiques | diminue l'effet de la lésion de la voie nigro-striée et améliore l'évolution | amélioration significative
